Data published in patent EP4806435A1, “DIHYDROCHROMENE-DERIVATIVE-CONTAINING THERAPEUTIC AGENT FOR CANCER” (Sumitomo Pharma Co., Ltd., priority 2023, dated 2025).
Read-outs that look alike come from different tables or passages of the source.

Assay: Phase 1 clinical trial: plasma pharmacokinetics
Type: in vivo, human
Conditions: for Tmax / half-life / Cmax / AUC / AUC(0-t): human, plasma, oral; for half-life: read-out: Effective T1/2 (converted)
Procedure: Summary statistics based on preliminary data were obtained for the pharmacokinetics of Compound 1 in patients receiving once-daily doses ranging from 20 mg to 240 mg (Table 5). The mean plasma concentration-time curves of Compound 1 in the once-daily dose groups ranging from 20 mg to 240 mg are shown in Figure 11. In this study, one cycle consists of 28 days, and Cycle 1 Day 1 refers to Day 1 of the first cycle. […] Accumulation was observed after repeated administration. […] Based on these accumulation ratios, the half-life of Compound 1 was estimated to be approximately 4 days. Based on the currently available data, plasma concentrations are considered to have reached steady state by Day 15.
Summary statistics based on preliminary data were obtained for the pharmacokinetics of Compound 1 in patients in the 20 mg QD, 40 mg QD, 80 mg QD, 120 mg QD, 180 mg QD, 240 mg QD, 360 mg QD, and 480 mg daily (240 mg BID) dose groups (Table 6). The mean plasma concentration-time curves of Compound 1 in the 20 mg QD to 480 mg daily (240 mg BID) dose groups are shown in Figure 12 (in Figure 12, Compound 1 is denoted as "DSP-0390"). In this study, one cycle consists of 28 days, and Cycle 1 Day 1 refers to Day 1 of the first cycle. […] The median Tmax ranged from 2 to 8 hours. Accumulation was observed after repeated administration, and assuming linearity based on the observed accumulation ratios, the estimated elimination half-life was considered to be on the order of several days (approximately 1 to 6 days) (data cut-off: March 2024).

[1] = repeated administration, 20 mg to 240 mg once daily, cut-off April 2023

SMILES: CC1(C)Oc2cc(Cl)ccc2[C@@H]2OCC3(CCN(CCn4ccnc4)CC3)C[C@H]21 [Compound 1, (4'aR,10'bR)-8'-chloro-1-[2-(1H-imidazol-1-yl)ethyl]-5',5'-dimethyl-4'a,10'b-dihydro-2'H,4'H,5'H-spiro[piperidine-4,3'-pyrano[3,2-c][1]benzopyran] diphosphate]
- Tmax (180 mg, Cycle 2 Day 1, 180 mg, QD, cut-off April 2023, read-out: Tmax (median)): 7 h
- half-life (240 mg, 240 mg QD, cut-off March 2024): 45.6 h
- half-life (240 mg, 480 mg (240 mg BID), cut-off March 2024): 16.8 h
- Cmax (240 mg, Cycle 1, Day 1, 240 mg QD, cut-off March 2024, read-out: Cmax): 177 ng/mL
- Tmax (240 mg, Cycle 1, Day 1, 240 mg QD, cut-off March 2024, read-out: Tmax [a] median value): 2 h
- AUC (240 mg, Cycle 1, Day 1, 240 mg QD, tau = 24 hours, cut-off March 2024, read-out: AUCtau [b]): 1620 ng·h/mL
- Cmax (240 mg, Cycle 1, Day 1, 480 mg (240 mg BID), cut-off March 2024, read-out: Cmax): 143 ng/mL
- Tmax (240 mg, Cycle 1, Day 1, 480 mg (240 mg BID), cut-off March 2024, read-out: Tmax [a] median value): 4 h
- AUC (240 mg, Cycle 1, Day 1, 480 mg (240 mg BID), n=1, tau = 12 hours, cut-off March 2024, read-out: AUCtau [b]): 1980 ng·h/mL
- AUC(0-t) (240 mg, Cycle 1 Day 1, 240 mg, QD, cut-off April 2023, read-out: AUC0-24 (geometric mean)): 1480 ng·h/mL
- AUC(0-t) (240 mg, Cycle 1 Day 1, 240 mg, QD, cut-off April 2023, read-out: AUC0-24 (mean)): 1510 ng·h/mL
- AUC(0-t) (240 mg, Cycle 1 Day 1, 240 mg, QD, cut-off April 2023, read-out: AUC0-24 (median)): 1620 ng·h/mL
- Cmax (240 mg, Cycle 1 Day 1, 240 mg, QD, cut-off April 2023, read-out: Cmax (geometric mean)): 145 ng/mL
- Cmax (240 mg, Cycle 1 Day 1, 240 mg, QD, cut-off April 2023, read-out: Cmax (mean)): 153 ng/mL
- Cmax (240 mg, Cycle 1 Day 1, 240 mg, QD, cut-off April 2023, read-out: Cmax (median)): 148 ng/mL
- Tmax (240 mg, Cycle 1 Day 1, 240 mg, QD, cut-off April 2023, read-out: Tmax (mean)): 3 h
- Tmax (240 mg, Cycle 1 Day 1, 240 mg, QD, cut-off April 2023, read-out: Tmax (median)): 2 h
- Cmax (240 mg, Cycle 2, Day 1, 240 mg QD, cut-off March 2024, read-out: Cmax,ss): 316 ng/mL
- Tmax (240 mg, Cycle 2, Day 1, 240 mg QD, cut-off March 2024, read-out: Tmax,ss [a] median value): 5 h
- AUC (240 mg, Cycle 2, Day 1, 240 mg QD, tau = 24 hours, cut-off March 2024, read-out: AUCtau,ss [b]): 5330 ng·h/mL
- Cmax (240 mg, Cycle 2, Day 1, 480 mg (240 mg BID), cut-off March 2024, read-out: Cmax,ss): 346 ng/mL
- Tmax (240 mg, Cycle 2, Day 1, 480 mg (240 mg BID), cut-off March 2024, read-out: Tmax,ss [a] median value): 7 h
- AUC (240 mg, Cycle 2, Day 1, 480 mg (240 mg BID), n=1, tau = 12 hours, cut-off March 2024, read-out: AUCtau,ss [b]): 3180 ng·h/mL
- AUC(0-t) (240 mg, Cycle 2 Day 1, 240 mg, QD, N=1, cut-off April 2023, read-out: AUC0-24 (geometric mean)): 6670 ng·h/mL
- AUC(0-t) (240 mg, Cycle 2 Day 1, 240 mg, QD, N=1, cut-off April 2023, read-out: AUC0-24 (mean)): 6670 ng·h/mL
- AUC(0-t) (240 mg, Cycle 2 Day 1, 240 mg, QD, N=1, cut-off April 2023, read-out: AUC0-24 (median)): 6670 ng·h/mL
- Cmax (240 mg, Cycle 2 Day 1, 240 mg, QD, cut-off April 2023, read-out: Cmax (geometric mean)): 359 ng/mL
- Cmax (240 mg, Cycle 2 Day 1, 240 mg, QD, cut-off April 2023, read-out: Cmax (mean)): 360 ng/mL
- Cmax (240 mg, Cycle 2 Day 1, 240 mg, QD, cut-off April 2023, read-out: Cmax (median)): 360 ng/mL
- Tmax (240 mg, Cycle 2 Day 1, 240 mg, QD, cut-off April 2023, read-out: Tmax (mean)): 7 h
- Tmax (240 mg, Cycle 2 Day 1, 240 mg, QD, cut-off April 2023, read-out: Tmax (median)): 7 h
- half-life (360 mg, 360 mg QD, cut-off March 2024): 24 h
- Cmax (360 mg, Cycle 1, Day 1, 360 mg QD, cut-off March 2024, read-out: Cmax): 359 ng/mL
- Tmax (360 mg, Cycle 1, Day 1, 360 mg QD, cut-off March 2024, read-out: Tmax [a] median value): 4 h
- AUC (360 mg, Cycle 1, Day 1, 360 mg QD, tau = 24 hours, cut-off March 2024, read-out: AUCtau [b]): 4110 ng·h/mL
- Cmax (360 mg, Cycle 2, Day 1, 360 mg QD, cut-off March 2024, read-out: Cmax,ss): 489 ng/mL
- Tmax (360 mg, Cycle 2, Day 1, 360 mg QD, cut-off March 2024, read-out: Tmax,ss [a] median value): 4 h
- AUC (360 mg, Cycle 2, Day 1, 360 mg QD, tau = 24 hours, cut-off March 2024, read-out: AUCtau,ss [b]): 8490 ng·h/mL
- AUC(0-t) (Cycle 1 Day 1, 20 mg to 240 mg once daily, cut-off April 2023, read-out: geometric mean of AUC0-24, range over all dose groups): 76 to 1480 ng·h/mL
- Cmax (Cycle 1 Day 1, 20 mg to 240 mg once daily, cut-off April 2023, read-out: geometric mean of Cmax, range over all dose groups): 4 to 145 ng/mL
- Tmax (Cycle 1 Day 1, 20 mg to 240 mg once daily, cut-off April 2023, read-out: median Tmax, range over all dose groups): 2 to 8 h
- AUC(0-t) (Cycle 2 Day 1, 20 mg to 240 mg once daily, cut-off April 2023, read-out: geometric mean of AUC0-24, range over all dose groups): 556 to 6670 ng·h/mL
- Cmax (Cycle 2 Day 1, 20 mg to 240 mg once daily, cut-off April 2023, read-out: geometric mean of Cmax, range over all dose groups): 27.7 to 359 ng/mL
- Tmax (Cycle 2 Day 1, 20 mg to 240 mg once daily, cut-off April 2023, read-out: median Tmax, range over all dose groups): 2 to 7 h
- plasma concentrations reached steady state (once-daily dosing, cut-off April 2023): ≤ 15 days
- dose dependence of exposure (range of 20 mg to 360 mg QD): increased in a dose-dependent manner
- mean accumulation ratio for AUC0-24, range over dose groups [1]: 3.9-8.6
- mean accumulation ratio for Cmax, range over dose groups [1]: 2.6-6.2
